Assay [1] relates to MEFs with Nanog-EGFP-IRES-Puro. Description: GFP-positive colonies from Nanog-EGFP-IRES-Puro MEFs after 4-factor transduction and puromycin selection. It counts as cell-based, mouse. To be noted: PD98059 25 μM continuously from the next day of retroviral transfection; 4 factors; 8% without PD98059. An excerpt:
Studies were made as to whether iPS cells could be established with a reporter other than Fbx15-βgeo. Escherichia coli artificial chromosome (BAC) containing the Nanog gene in the center was isolated, and then the GFP gene and the puromycin resistance gene were knocked in by recombination in E. coli (FIG. 12A). Subsequently, the above modified BAC was introduced into ES cells to confirm that the cells became GFP-positive in an undifferentiated state specific manner (data not shown). Then, these ES cells were transplanted in mouse blastocysts to create transgenic mice via chimeric mice. In these mice, GFP-positive cells were specifically observed in inner cell masses of the blastocysts or gonads of embryos at 13.5 days after fertilization (FIG. 12B). The gonads were removed from the embryos at 13.5 days after fertilization (hybrid of DBA, 129, and C57BL/6 mice), and MEFs were isolated. The isolated MEFs were confirmed to be GFP-negative (FIG. 13) by flow cytometry. These MEFs were retrovirally transduced with the 4 factors and subjected to puromycin selection, and as a result, a plural, number of resistant colonies were obtained. Only about 10 to 20% of the colonies were GFP-positive. When the GFP-positive colonies were passaged, they gave morphology (FIG. 14) and proliferation (FIG. 15) similar to those of ES cells. […]

Assay [2] deals with MEFs derived from the Fbx15^βgeo/βgeo mouse. Description: Effect of cytokine (bFGF- or SCF-producing STO feeder cells) on iPS cell establishment. The class given is cell-based. To be noted: no colony on normal STO cells. The source says:
An effect of cytokine on iPS cell establishment was investigated. Expression vector (pMX retroviral vector) for basic fibroblast growth factor (bFGF) or stem cell factor (SCF) was transduced into feeder cells (STO cells) to establish cells permanently expressing the cytokines. […] As a result, the number of formed colonies increased 20 times or higher on the STO cells producing bFGF (FIG. 11) or SCF (data not shown), as compared with the culture on normal STO cells.

On to `COc1cccc(-c2cc(=O)c3ccccc3o2)c1N` [PD98059], for which the “percentage of GFP-positive colonies” value in assay [1] is listed as 45%.
With “SCF: cytokine produced by STO feeder cells transduced with pMX expression vector”, the “iPS cell colony formation with the 3 factors other than c-Myc” value in assay [2] is “colony formation was observed”.
On to “bFGF: cytokine produced by STO feeder cells transduced with pMX expression vector”, for which the “iPS cell colony formation with the 3 factors other than c-Myc” value in assay [2] is on record as “colony formation was observed”.

(Values after patent publication US12466863B2, “Nuclear reprogramming factor and induced pluripotent stem cells” (Kyoto University, priority 2005, dated 2025).)
